According to PubChem BioAssay AID1918998 (Molecular Pharmacology Branch, DTP, NCI, 2023):

System: 521955-158-R2-J5-PDC complex spheroid growth
Experiment: Anticancer human tumor 521955-158-R2-J5-PDC patient-derived pancreatic carcinoma cell line growth inhibition [AhR]
Details: for IC50: curve of first compound; for viability, T/C: stronger effect = lower value
How it was run: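 Spheroids combined tumor cells with HUVEC endothelial cells and human MSCs as stroma. AhR antagonists were paired with standard or investigational drugs, each dosed in half-log steps down from near clinical Cmax, or from 10 microM where Cmax was unknown.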

[1] = second compound 0.1 µM, first compound 0.0316 µM
[2] = second compound 0.1 µM, first compound 0.1 µM
[3] = second compound 0.1 µM, first compound 0.316 µM
[4] = second compound 0.1 µM, first compound 1 µM
[5] = second compound 0.1 µM, first compound 3.16 µM
[6] = second compound 0.1 µM, first compound 10 µM
[7] = second compound 0.316 µM, first compound 0.0316 µM
[8] = second compound 0.316 µM, first compound 0.1 µM
[9] = second compound 0.316 µM, first compound 0.316 µM
[10] = second compound 0.316 µM, first compound 1 µM
[11] = second compound 0.316 µM, first compound 3.16 µM
[12] = second compound 0.316 µM, first compound 10 µM
[13] = second compound 1 µM, first compound 0.0316 µM
[14] = second compound 1 µM, first compound 0.1 µM
[15] = second compound 1 µM, first compound 0.316 µM
[16] = second compound 1 µM, first compound 1 µM
[17] = second compound 1 µM, first compound 3.16 µM
[18] = second compound 1 µM, first compound 10 µM
[19] = second compound 3.16 µM, first compound 0.0316 µM
[20] = second compound 3.16 µM, first compound 0.1 µM
[21] = second compound 3.16 µM, first compound 0.316 µM
[22] = second compound 3.16 µM, first compound 1 µM
[23] = second compound 3.16 µM, first compound 3.16 µM
[24] = second compound 3.16 µM, first compound 10 µM
[25] = second compound 10 µM, first compound 0.0316 µM
[26] = second compound 10 µM, first compound 0.1 µM
[27] = second compound 10 µM, first compound 0.316 µM
[28] = second compound 10 µM, first compound 1 µM
[29] = second compound 10 µM, first compound 3.16 µM
[30] = second compound 10 µM, first compound 10 µM
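Throughout, for viability, T/C: spheroids mix tumor cells with HUVEC endothelium and human MSC stroma; luminescence taken as viability surrogate after a week of drug exposure.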

Structure (SMILES)	IC50 (second compound 0.1 µM) [µM]	IC50 (second compound 0.316 µM) [µM]	IC50 (second compound 1 µM) [µM]	IC50 (second compound 3.16 µM) [µM]	IC50 (second compound 10 µM) [µM]	viability, T/C [1] [%]	viability, T/C [2] [%]	viability, T/C [3] [%]	viability, T/C [4] [%]	viability, T/C [5] [%]	viability, T/C [6] [%]	viability, T/C [7] [%]	viability, T/C [8] [%]	viability, T/C [9] [%]	viability, T/C [10] [%]	viability, T/C [11] [%]	viability, T/C [12] [%]	viability, T/C [13] [%]	viability, T/C [14] [%]	viability, T/C [15] [%]	other results
Nc1ccccc1NC(=O)c1ccc(CNC(=O)OCc2cccnc2)cc1 + Cc1cncc(-c2nc(NCCc3c[nH]c4ccccc34)c3ncn(C(C)C)c3n2)c1	5.51	6.11	5.74	5.35	1.02	108	106	125	94.7	68.4	31.5	117	134	126	103	77.7	30.4	133	139	155	viability, T/C [16]: 108%; viability, T/C [17]: 73.4%; viability, T/C [18]: 30.5%; viability, T/C [19]: 138%; viability, T/C [20]: 143%; viability, T/C [21]: 135%; viability, T/C [22]: 110%; viability, T/C [23]: 69.9%; viability, T/C [24]: 27.2%; viability, T/C [25]: 135%; viability, T/C [26]: 125%; viability, T/C [27]: 101%; viability, T/C [28]: 48.8%; viability, T/C [29]: 17.7%; viability, T/C [30]: 2.9%
O=C(C=Cc1cccc(S(=O)(=O)Nc2ccccc2)c1)NO + Cc1cncc(-c2nc(NCCc3c[nH]c4ccccc34)c3ncn(C(C)C)c3n2)c1	5.89	6.86	> 10	6.64	1.73	119	115	138	93.6	63.7	39.8	131	129	125	101	66.5	42	146	132	137	viability, T/C [16]: 108%; viability, T/C [17]: 73.6%; viability, T/C [18]: 51.4%; viability, T/C [19]: 135%; viability, T/C [20]: 143%; viability, T/C [21]: 147%; viability, T/C [22]: 106%; viability, T/C [23]: 61.3%; viability, T/C [24]: 43.5%; viability, T/C [25]: 151%; viability, T/C [26]: 112%; viability, T/C [27]: 108%; viability, T/C [28]: 69.2%; viability, T/C [29]: 25.2%; viability, T/C [30]: 5.33%
O=C(c1cc(Cc2n[nH]c(=O)c3ccccc23)ccc1F)N1CCN(C(=O)C2CC2)CC1 + Cc1cncc(-c2nc(NCCc3c[nH]c4ccccc34)c3ncn(C(C)C)c3n2)c1	> 10	> 10	> 10	> 10	> 10	106	97.8	113	106	98	92.4	101	114	109	102	86.9	99.5	119	116	115	viability, T/C [16]: 99.4%; viability, T/C [17]: 104%; viability, T/C [18]: 89.2%; viability, T/C [19]: 142%; viability, T/C [20]: 133%; viability, T/C [21]: 121%; viability, T/C [22]: 135%; viability, T/C [23]: 115%; viability, T/C [24]: 126%; viability, T/C [25]: 139%; viability, T/C [26]: 156%; viability, T/C [27]: 167%; viability, T/C [28]: 117%; viability, T/C [29]: 114%; viability, T/C [30]: 123%
